Several values for one entry are separate records, joined by “and”; a condition that tells them apart may be missing. Equal values may be shown once. Ends that are not written are not given here.
Experiments:
antibodies to HTLV-1 [1] = experiment: ELISA reactivity of gpHHTLV-1 with confirmed positive and true negative sera/CSF (Table 3); assay type: binding, human
Procedure: (§1) Polylysine at a concentration of 1 mg/ml was added to the microtiter plates and allowed to incubate for 30 minutes. The polylysine was then discarded and peptide gpAHTLV-1 was added to the wells in a concentration of 10 to 100 μg/ml for coating. After the peptide incubated in the well for a length of time sufficient to allow the peptide to become bonded to the well, the peptide solution was removed and a solution of glutaraldehyde, which stabilizes the peptide attachment to the wells, was added for 15 minutes. The glutaraldehyde solution was then removed, the wells washed with buffer, and a mixture of glycine and bovine serum albumin (BSA) was added which served to block unbound sites in the wells and minimize spurious reactions during the ELISA test per se. After a final washing step, the plates were ready to use.
(§2) A convenient variation of known ELISA methods was used with the microtiter plates prepared as above. Serum samples from individuals which had been diluted 1:50 in PBS (phosphate buffered saline) containing 0.05% polyoxyethylenesorbitan monolaurate (Tween 20) and 1% BSA were added to each well and allowed to incubate for 90 minutes at 37° C. in a humidified atmosphere. The diluted serum samples were then removed from the plates and the wells washed three times with PBS containing 0.05% Tween 20. A conjugated anti-human immunoglobulin (Ig) antibody was then added to the wells and allowed to incubate for 90 minutes. The conjugated antibody was produced in a goat or rabbit and was specific for human IgG, IgM, immunoglobulin light chains, or combinations thereof. Preferably, alkaline-phophatase conjugated anti-human IgG (from Dakopatts) diluted 1:500 for use in PBS containing 0.05% Tween 20 and 1% BSA was used in the ELISA. After the conjugate had incubated a sufficient length of time to react with bound human antibodies, the plates were washed three times as above. In order to detect antibodies to HTLV-1 in the human serum that react with the peptide gpAHTLV-1 used as the antigen, (i.e. positive reactions), a chromogenic substrate, alkaline phosphatase substrate (Sigma Cat. No. 104 tablets) dissolved in a Na carbonate/MgCl2 buffer and adjusted to a concentration of 1 μg/ml which is cleaved by the alkaline phosphatase enzyme attached to the anti-human Ig antibody to yield a colored product, was added. After incubation for approximately 40 minutes at room temperature, positive reactions indicated the presence of antibodies in the sample reactive with the antigen. A yellow to orange to reddish-brown color in each well indicating a positive reaction, was read in a spectrophotometer at 405 nm to quantify the reaction. Spectrophotometric readings were adjusted to correct for background reactions.
Peptide gpHHTLV-1 having the amino acid sequence: […]OH was synthesized as described in Example 1 and used in an ELISA test as described in Example 2 to measure its immunologic reactivity against confirmed Japanese HTLV-sera and sera from U.S.A. and Europe from patients with Adult T-cell Leukemia Tropical Spastic Paraparesis (TSP) and cerebrospinal fluids (CSF).

antibodies to HTLV-1 [2] = experiment: ELISA absorbance on Japanese HTLV-1 sera using gpHHTLV-1 (Table 4); assay type: binding, human; settings: serum 1248, negative control, Western blot -; diluted 1/50
Procedure: as §1
(§3) A convenient variation of known ELISA methods was used with the microtiter plates prepared as above. […] A yellow to orange to reddish-brown color in each well indicating a positive reaction, was read in a spectrophotometer at 405 nm to quantify the reaction. Spectrophotometric readings were adjusted to correct for background reactions.
Absorbance values on Japanese HTLV-1 sera were measured in ELISA using gpHHTLV-1 as well as Du-Pont HTLV-1 ELISA and Western blot. […]

[3] = tested on: HTLV-1 positive serum samples; experiment: immunoreactivity screening of eight synthesized peptides A-H with HTLV-1 positive sera; assay type: binding, human
Source text: The four peptides were selected from among eight different synthesized peptides designated A-H which correspond to the HTLV-1 envelope glycoprotein. These peptides were selected using various criteria similar to the selection of useful HIV-1 or HIV-2 peptides, e.g. proximity to or containing a cysteine residue (location of cysteine in similar proteins from related organisms being relatively invariant) and proximity to glycosylation sites. Although such criteria for selection of peptides can rule out potentially nonuseful peptides and indicate potentially useful peptides, further testing was required to identify which of the eight peptides would display immunoreactivity to HTLV-1 positive serum samples. The eight peptides were synthesized in the priority A through H with the […] believed to be least antigenic based on the above-criteria.

antibodies to HTLV-1 [4] = experiment: ELISA absorbance on sera and CSF from patients with ATL and TSP using gpHHTLV-1 (Table 5); assay type: binding, human; settings: neg CSF 8, 19, 21; diluted 1/20
Procedure: as §1, §3
Absorbance values on sera and CSF from patients with ATL and TSP were measured in ELISA using gpHHTLV-1 sera diluted 1/50, CSF sera was diluted 1/20.

antibodies to HTLV-1 [5] = experiment: ELISA immunologic reactivity of peptides gpAHTLV-1, gpBHTLV-1 and gpCHTLV-1 with human sera (Table 2); assay type: binding; settings: for Mean O.D.405 of Negative Sera / cut off = Mean O.D.405 of Negative Sera + 6 × S.D.: negative sera of Table 2; for confirmed positive HTLV-1 serum samples reacted with peptide: reactive/tested, 6 HTLV-1 positive sera
Procedure: as §1, §2
Peptides gpAHTLV-1, gpBHTLV-1, gpCHTLV-1, synthesized as described in Example 1, were run in parallel ELISA tests as described in Example 2 against 6 serum samples positive for antibodies to HTLV-1, 8 serum samples positive for antibodies to HIV-1 and 10 blood donor sera negative for HIV-1/HIV-2.

HTLV-1 patient sera = settings: reactive/tested; Palker et al., 1986; cited from earlier work
[6] = storage stability of peptide-coated microtiter plates; assay type: physicochemical; settings: peptide-coated microtiter plates stored for several months
Procedure: as §1

[7] = tested on: sera from HTLV-1 positive patients; settings: reactive/tested; Copeland et al., 1986; cited from earlier work

Substance: Leu-Asn-Thr-Glu-Pro-Ser-Gln-Leu-Pro-Pro-Thr-Ala-Pro-Pro-Leu-Leu-Pro-His-Ser-Asn-Leu-Asp-His-Ile-Cys-OH (LNTEPSQLPPTAPPLLPHSNLDHIC-OH) [gpHHTLV-1]
- Positive in ELISA (antibodies to HTLV-1 [1]; ATL CSF, positive/tested): 1/1
- Positive in ELISA (percent) (antibodies to HTLV-1 [1]; Japanese HTLV-1 sera): 69%
- Positive in ELISA (antibodies to HTLV-1 [1]; Japanese HTLV-1 sera, positive/tested): 22/32
- Positive in ELISA (antibodies to HTLV-1 [1]; TSP CSF, positive/tested): 4/4
- Positive in ELISA (antibodies to HTLV-1 [1]; TSP sera, positive/tested): 4/4
- known positive sera confirmed HTLV-1 positive (in words) (antibodies to HTLV-1 [1]; Table 3 as summarised in text): all known positive sera were confirmed HTLV-1 positive
- Positive in ELISA (antibodies to HTLV-1 [1]; true negative: 4 EB virus IgM positive sera): 0/4
- Positive in ELISA (antibodies to HTLV-1 [1]; true negative: 4 Leukemia patients sera): 0/4
- Positive in ELISA (antibodies to HTLV-1 [1]; true negative: 4 Rheumatoid factor positive sera): 0/4
- Positive in ELISA (antibodies to HTLV-1 [1]; true negative: 4 Transplant recipients sera): 0/4
- Positive in ELISA (antibodies to HTLV-1 [1]; true negative: 8 CSF (aseptic meningitis)): 0/8
- Positive in ELISA (antibodies to HTLV-1 [1]; true negative: 8 HIV-2 positive sera): 0/8
- Positive in ELISA (antibodies to HTLV-1 [1]; true negative: 28 blood donor sera): 0/28
- Positive in ELISA (antibodies to HTLV-1 [1]; true negative: 30 HIV-1 positive sera): 0/30
- Absorbance values in gpHHTLV-1 ELISA (antibodies to HTLV-1 [2]): 0.109
- usefulness for diagnosis of HTLV-1 infection (in words) [3]: useful for diagnosis of HTLV-1 infection
- gpHHTLV-1 ELISA absorbance (antibodies to HTLV-1 [4]): 0.033 and 0.039 and 0.056

Substance: X-Tyr-Thr-Cys-Ile-Val-Cys-Ile-Asp-Arg-Ala-Ser-Leu-Ser-Thr-Trp-His-Val-Leu- Tyr-Ser-Pro-Y-Z (YTCIVCIDRASLSTWHVLYSP; not fully specified (N-terminus, C-terminus); cysteine pairing not given here; also: end groups X, Y, Z left open in the general formula) [gpCHTLV-1]
- Mean O.D.405 of Negative Sera (antibodies to HTLV-1 [5]): 0.116 O.D.405
- cut off = Mean O.D.405 of Negative Sera + 6 × S.D. (antibodies to HTLV-1 [5]): 0.368 O.D.405
- confirmed positive HTLV-1 serum samples reacted with peptide (antibodies to HTLV-1 [5]): 5/6
- usefulness for diagnosis of HTLV-1 infection (in words) [3]: useful for diagnosis of HTLV-1 infection

Substance: X-Trp-Thr-His-Cys-Phe-Asp-Pro-Gln-Ile-Gln--Ala-Ile-Val-Ser-Ser-Pro-Cys-His-Asn-Ile-Leu-Y-Z (WTHCFDPQIQAIVSSPCHNIL; not fully specified (N-terminus, C-terminus); cysteine pairing not given here; also: end groups X, Y, Z left open in the general formula) [gpBHTLV-1]
- Mean O.D.405 of Negative Sera (antibodies to HTLV-1 [5]): 0.088 O.D.405
- cut off = Mean O.D.405 of Negative Sera + 6 × S.D. (antibodies to HTLV-1 [5]): 0.298 O.D.405
- confirmed positive HTLV-1 serum samples reacted with peptide (antibodies to HTLV-1 [5]): 5/6
- usefulness for diagnosis of HTLV-1 infection (in words) [3]: useful for diagnosis of HTLV-1 infection

Substance: PYVEPTAPQVL [SP-71]
- HTLV-1 patient sera reacting in RIA (HTLV-1 patient sera): 8/9

Substance: Gly-Leu-Asp-Leu-Leu-Phe-Trp-Glu-Gln-Gly-Gly-Leu-Cys-Lys-Ala-Leu-Gln-Glu-Gln-Cys-Arg-Phe-Pro-Asn-Cys-OH (GLDLLFWEQGGLCKALQEQCRFPNC-OH; cysteine pairing not given here) [gpAHTLV-1]
- antigenic activity of coated peptide after storage (in words) [6]: without any decrease in antigenic activity
- Mean O.D.405 of Negative Sera (antibodies to HTLV-1 [5]): 0.124 O.D.405
- cut off = Mean O.D.405 of Negative Sera + 6 × S.D. (antibodies to HTLV-1 [5]): 0.490 O.D.405
- confirmed positive HTLV-1 serum samples reacted with peptide (antibodies to HTLV-1 [5]): 6/6
- usefulness for diagnosis of HTLV-1 infection (in words) [3]: useful for diagnosis of HTLV-1 infection

Substance: Pro-Pro-Phe-Ser-Leu-Ser-Pro-Val-Pro-Thr-Leu-NH2 (PPFSLSPVPTL-NH2) [SP-70]
- sera from HTLV-1 positive patients reacting [7]: 4/12

Reference: patent US5017687A, “Peptides for the detection of HTLV-1 infection” (Virovahl, S.A., priority 1988, dated 1991)
